From PubChem BioAssay (NCI)
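The compound was tested at five concentrations on cells cultured in 96-well plates, with a 48-hour exposure period. GI50 marks 50% less growth. TGI denotes the concentration required for complete inhibition of growth.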

Tests used:
Assay in all cases: NCI tumour cell line growth inhibition, 48 h
DMS 273 small cell lung = tested on: DMS 273 small cell lung
LXFL 529 NSCLC = tested on: LXFL 529 NSCLC
RXF-631 renal = tested on: RXF-631 renal
BT-549 breast = tested on: BT-549 breast
NCI/ADR-RES ovarian = tested on: NCI/ADR-RES ovarian
T-47D breast = tested on: T-47D breast
XF 498 CNS = tested on: XF 498 CNS
MDA-N = tested on: MDA-N

Work on `O=C1C(=O)C(Br)(Br)C(Br)=C1Br` yielded a TGI (DMS 273 small cell lung) of 48.1 µM, a TGI (LXFL 529 NSCLC) of 29 µM and a TGI (RXF-631 renal) greater than 100 µM.
`CC(=O)N=c1ccc2nc3c(cc(N)c4ccccc43)oc-2c1` showed a GI50 (BT-549 breast) of 2.47 µM, a TGI (BT-549 breast) of 7.46 µM and a GI50 (NCI/ADR-RES ovarian) of 1.62 µM. For the same molecule, the TGI (NCI/ADR-RES ovarian) was 4.95 µM.
`CCN(CC)C(=O)COc1ccc(Br)cc1Br` showed a TGI (DMS 273 small cell lung) greater than 100 µM, a TGI (LXFL 529 NSCLC) greater than 100 µM and a TGI (RXF-631 renal) greater than 100 µM.
For `CCCN(CCC)c1ccc(/C=N/NC(=O)c2cccnc2)c(Cl)c1`, the GI50 (BT-549 breast) was 12.9 µM, the TGI (BT-549 breast) was 33.4 µM and the GI50 (T-47D breast) was 1.07 µM. The TGI (T-47D breast) was 13.9 µM, the GI50 (NCI/ADR-RES ovarian) was 5.78 µM and the TGI (NCI/ADR-RES ovarian) was 48.4 µM.
`Cc1ccc(S(=O)(=O)N2CCc3ccc(O)c4c3C2Cc2cc(Cl)ccc2-4)cc1` (stereo not drawn) was tested, and the GI50 (BT-549 breast) was 1.95 µM, the TGI (BT-549 breast) was 9.66 µM and the GI50 (T-47D breast) was 1.76 µM. The TGI (T-47D breast) was 19.7 µM, the GI50 (NCI/ADR-RES ovarian) was 0.819 µM and the TGI (NCI/ADR-RES ovarian) was 2.27 µM.
In the case of `O=C(COc1ccccc1)NS(=O)(=O)c1ccccc1`, the TGI (LXFL 529 NSCLC) is reported as greater than 100 µM and the TGI (RXF-631 renal) is reported as greater than 100 µM.
With `COC(=O)C1=C(C(=O)OC)C23C=C(C)C1C2=C(C)C1(CC1)[C@@](C)(O)C3=O` (stereo partly drawn) the GI50 (BT-549 breast) was 0.404 µM, the TGI (BT-549 breast) was 3.3 µM and the GI50 (T-47D breast) was 0.515 µM. The TGI (T-47D breast) was 6.4 µM, the GI50 (NCI/ADR-RES ovarian) was 0.303 µM and the TGI (NCI/ADR-RES ovarian) was 4.24 µM.
For `CCOC(=O)c1sc(Nc2ccc(Cl)cc2)nc1C`, the GI50 (BT-549 breast) was 1.48 µM, the TGI (BT-549 breast) was 3.29 µM and the GI50 (NCI/ADR-RES ovarian) was 1.78 µM. For the same molecule, the TGI (NCI/ADR-RES ovarian) was 4.08 µM.
Work on `O=c1cnn2c(n1)sc1ccc3ccccc3c12` yielded a TGI (XF 498 CNS) greater than 100 µM, a TGI (DMS 273 small cell lung) greater than 100 µM and a TGI (LXFL 529 NSCLC) greater than 100 µM.
In the case of `C[C@@]12CCC(=O)C=C1CC[C@H]1C2=CC[C@]2(C)C1CC[C@@]2(C)O` (stereo partly drawn), the TGI (BT-549 breast) is reported as greater than 100 µM, the TGI (T-47D breast) is reported as greater than 100 µM and the TGI (NCI/ADR-RES ovarian) is reported as greater than 100 µM. The TGI (MDA-N) was greater than 100 µM.
Molecule `CCCc1nc2c(C)cc(-c3nc4ccccc4n3C)cc2n1Cc1ccc(-c2ccccc2C(=O)O)cc1` has a GI50 (BT-549 breast) of 52.3 µM, a TGI (BT-549 breast) greater than 100 µM and a GI50 (T-47D breast) of 48.5 µM. For the same molecule, the TGI (T-47D breast) was greater than 100 µM, the GI50 (NCI/ADR-RES ovarian) was 41.9 µM and the TGI (NCI/ADR-RES ovarian) was greater than 100 µM.
With `Cc1ccccc1C(C#N)C(=O)C(=O)Nc1cccc(Cl)c1` (stereo not drawn) the TGI (XF 498 CNS) was greater than 100 µM, the TGI (DMS 273 small cell lung) was greater than 100 µM and the TGI (RXF-631 renal) was greater than 100 µM.
With `Nc1c(-c2ccc(Cl)cc2Cl)[n+]([O-])c2ccccc2[n+]1[O-]` the TGI (XF 498 CNS) was greater than 100 µM, the TGI (DMS 273 small cell lung) was greater than 100 µM and the TGI (LXFL 529 NSCLC) was greater than 100 µM. The TGI (RXF-631 renal) was greater than 100 µM.
With `O=C(Nc1nc2ncn(CC(COc3ccccc3)OC(=O)c3ccccc3)c2c(=O)[nH]1)c1ccccc1` (stereo not drawn) the TGI (XF 498 CNS) was greater than 100 µM, the TGI (DMS 273 small cell lung) was greater than 100 µM and the TGI (RXF-631 renal) was greater than 100 µM.
In the case of `N#Cc1ccnc(N2C(=O)CC[C@H]2C(=O)N(c2cncc(F)c2)[C@H](C(=O)NC2CC(F)(F)C2)c2ccccc2Cl)c1`, the GI50 (BT-549 breast) is reported as greater than 100 µM, the TGI (BT-549 breast) is reported as greater than 100 µM and the GI50 (T-47D breast) is reported as greater than 100 µM. For the same molecule, the TGI (T-47D breast) was greater than 100 µM, the GI50 (NCI/ADR-RES ovarian) was greater than 100 µM and the TGI (NCI/ADR-RES ovarian) was greater than 100 µM.
Work on `CC1OC(OCC2COC(O)(Oc3c(-c4ccc(O)c(O)c4)oc4cc(O)cc(O)c4c3=O)C(O)C2O)C(O)C(O)C1O` (stereo not drawn) yielded a TGI (XF 498 CNS) greater than 100 µM, a TGI (DMS 273 small cell lung) greater than 100 µM and a TGI (LXFL 529 NSCLC) greater than 100 µM. For the same molecule, the TGI (RXF-631 renal) was greater than 100 µM.
Molecule `O=[N+]([O-])c1nccn1COCCF` has a TGI (XF 498 CNS) greater than 100 µM and a TGI (LXFL 529 NSCLC) greater than 100 µM.
`CCOC(=O)c1c(C(F)(F)F)n([O-])c2ccc(OC)cc2[n+]1=O` gave a GI50 (BT-549 breast) of 4.29 µM, a TGI (BT-549 breast) of 33.7 µM and a GI50 (T-47D breast) of 2.6 µM. The TGI (T-47D breast) was 8.69 µM, the GI50 (NCI/ADR-RES ovarian) was 3.72 µM and the TGI (NCI/ADR-RES ovarian) was 40.7 µM.
`Cc1ccc(C)c(NC(=O)CC/C(=N\NC(=O)C(N)=O)C(C)C(=O)c2ccc(O)cc2)c1` (stereo not drawn) was tested, and the TGI (LXFL 529 NSCLC) was greater than 100 µM and the TGI (RXF-631 renal) was greater than 100 µM.
`COc1ccc(-c2nc(-c3nc4ccc(OC)cc4[nH]3)cc3c2[nH]c2ccccc23)cc1` gave a GI50 (BT-549 breast) of 7.1 µM, a TGI (BT-549 breast) greater than 100 µM and a GI50 (T-47D breast) of 2.27 µM. It also gave a TGI (T-47D breast) greater than 100 µM, a GI50 (NCI/ADR-RES ovarian) of 2.1 µM and a TGI (NCI/ADR-RES ovarian) greater than 100 µM.
With `COc1ccc(NC(=O)c2sc3nc(C)c(C(O)c4ccccc4)cc3c2N)cc1` (stereo not drawn) the GI50 (BT-549 breast) was 6.13 µM, the TGI (BT-549 breast) was 51.6 µM and the GI50 (T-47D breast) was 3.36 µM. For the same molecule, the TGI (T-47D breast) was 98.3 µM, the GI50 (NCI/ADR-RES ovarian) was 2.55 µM and the TGI (NCI/ADR-RES ovarian) was 9.03 µM.
In the case of `CC(C)(C)C(=O)C1CC(=O)c2ccccc2C1=O` (stereo not drawn), the TGI (XF 498 CNS) is reported as greater than 100 µM and the TGI (RXF-631 renal) is reported as greater than 100 µM.
Work on `Cc1[nH]c(=O)[nH]c(=O)c1CO` yielded a GI50 (BT-549 breast) greater than 100 µM, a TGI (BT-549 breast) greater than 100 µM and a GI50 (T-47D breast) greater than 100 µM. For the same molecule, the TGI (T-47D breast) was greater than 100 µM, the GI50 (NCI/ADR-RES ovarian) was greater than 100 µM and the TGI (NCI/ADR-RES ovarian) was greater than 100 µM.
`NC(=S)N/N=C1/C(=O)N(c2ccc(Cl)cc2Cl)C(=O)C(=O)C1c1nc2ccccc2s1` (stereo not drawn) gave a TGI (XF 498 CNS) greater than 100 µM, a TGI (DMS 273 small cell lung) greater than 100 µM and a TGI (LXFL 529 NSCLC) greater than 100 µM.
`O=C1CCC2(CC1)SCCCS2` gave a TGI (XF 498 CNS) greater than 100 µM, a TGI (DMS 273 small cell lung) greater than 100 µM and a TGI (LXFL 529 NSCLC) greater than 100 µM.
Molecule `Cc1cc(O)cc2c1O[C@@]1(C)CCC3[C@@]4(C)CC[C@H](O)C(C)(C)C4CC[C@@]3(C)[C@H]1C2` (stereo partly drawn) has a TGI (DMS 273 small cell lung) of 11.6 µM and a TGI (LXFL 529 NSCLC) of 7.64 µM.
With `COc1cc(-c2cc(-c3nc4ccc(Cl)cc4[nH]3)[nH]n2)cc(OC)c1OC` the GI50 (BT-549 breast) was 2.54 µM, the TGI (BT-549 breast) was 8.35 µM and the GI50 (T-47D breast) was 1.58 µM. It also gave a TGI (T-47D breast) of 4.54 µM.
With `Cc1cc(Cl)cc2c1NC(=O)C2(O)C(C)C(=O)c1ccc(Cl)cc1` (stereo not drawn) the TGI (XF 498 CNS) was greater than 100 µM, the TGI (DMS 273 small cell lung) was greater than 100 µM and the TGI (LXFL 529 NSCLC) was greater than 100 µM.
`CCOC(=O)/C(=C/c1ccc(C#N)cc1)N(CC)CC` was tested, and the TGI (XF 498 CNS) was greater than 100 µM, the TGI (LXFL 529 NSCLC) was greater than 100 µM and the TGI (RXF-631 renal) was greater than 100 µM.
`COc1cc(/C=C2\COc3ccc(O)c(O)c3C2=O)cc(OC)c1` gave a GI50 (BT-549 breast) of 1.56 µM, a TGI (BT-549 breast) of 4.97 µM and a GI50 (T-47D breast) of 1.45 µM. The TGI (T-47D breast) was 8 µM, the GI50 (NCI/ADR-RES ovarian) was 2.24 µM and the TGI (NCI/ADR-RES ovarian) was 46.5 µM.
`O=c1c2ccccc2c2nc3ccccc3nc2n1C1CCCCC1` showed a TGI (DMS 273 small cell lung) greater than 100 µM and a TGI (LXFL 529 NSCLC) greater than 100 µM.
Work on `NCc1nnn(Cc2ccccc2)c1N` yielded a TGI (BT-549 breast) greater than 100 µM, a TGI (T-47D breast) greater than 100 µM and a TGI (NCI/ADR-RES ovarian) greater than 100 µM. The TGI (MDA-N) was greater than 100 µM.
In the case of `NCCC(O)(P(=O)(O)O)P(=O)(O)O`, the GI50 (BT-549 breast) is reported as greater than 100 µM, the TGI (BT-549 breast) is reported as greater than 100 µM and the GI50 (T-47D breast) is reported as greater than 100 µM. It also gave a TGI (T-47D breast) greater than 100 µM, a GI50 (NCI/ADR-RES ovarian) greater than 100 µM and a TGI (NCI/ADR-RES ovarian) greater than 100 µM.
In the case of `CN(C)CCCc1c[nH]c2ccccc12`, the TGI (BT-549 breast) is reported as greater than 100 µM, the TGI (T-47D breast) is reported as greater than 100 µM and the TGI (NCI/ADR-RES ovarian) is reported as greater than 100 µM. The TGI (MDA-N) was greater than 100 µM.
Work on `COc1ccc2nc3ccccc3c(NCCCCCCN(C)CCCl)c2c1` yielded a TGI (XF 498 CNS) of 0.845 µM, a TGI (DMS 273 small cell lung) of 1.26 µM and a TGI (LXFL 529 NSCLC) of 1.76 µM.
Work on `CN(C)CC1(C)CC/C(=C\c2ccccc2)C1=O` (stereo not drawn) yielded a TGI (XF 498 CNS) greater than 100 µM, a TGI (DMS 273 small cell lung) greater than 100 µM and a TGI (RXF-631 renal) greater than 100 µM.
`Nc1c(C(=O)Nc2ccccc2Cl)sc2nc3c(cc12)CCCCCC3` was tested, and the GI50 (BT-549 breast) was 3.64 µM, the TGI (BT-549 breast) was 29.1 µM and the GI50 (T-47D breast) was 3.88 µM. The TGI (T-47D breast) was 17.2 µM, the GI50 (NCI/ADR-RES ovarian) was 2.82 µM and the TGI (NCI/ADR-RES ovarian) was 25.4 µM.
With `Nc1ccc(/C=N/Nc2ccnc3c(N)cccc23)c2cccnc12` the GI50 (T-47D breast) was 2.27 µM, the TGI (T-47D breast) was 5.02 µM and the GI50 (NCI/ADR-RES ovarian) was 1.93 µM. It also gave a TGI (NCI/ADR-RES ovarian) of 4.41 µM.
